Experimental findings from US20110124888A1, “STYRYLBENZOFURAN DERIVATIVES AS INHIBITORS FOR BETA-AMYLOID FIBRIL FORMATION AND PREPARATION METHOD THEREOF” (Korea Institute of Science and Technology, priority 2008, published 2011) are described below.

The target of one data set is beta-amyloid 42 (Homo sapiens, UniProt P05067). Nature of the data set: Biochemical test: content of beta-amyloid 42 in hippocampus tissue of transgenic mice. The format is in vivo. Conditions: for Reduction rate (%) of beta amyloid 42 content: hippocampus tissue, based on the content of beta amyloid 42 in the Tg group.
Chain of beta-amyloid 42 (P05067 672-713 limits assumed): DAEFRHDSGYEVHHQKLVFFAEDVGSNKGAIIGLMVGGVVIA
Data set [1] deals with transgenic double tg mice (APPswe, PSEN1 dE9). Nature of the data set: In vivo fear conditioning test in transgenic mice. The following applies: for Increase rate (fold) of freezing: 5 to 12 months of age, based on the freezing (%) of Tg vehicle group. Here is the method:
The tails of 3-week old mice born from Male B6C3-Tg (APPswe, PSEN1 dE9, Jackson Laboratory Co., Maine, A) and female B6C3F1 (central Lab. Animal Inc., Korea) were cut in lengths of about 0.5 cm (tail biopsy). The genomic DNAs were extracted from the tail samples and subjected to a genotype analysis to screen transgenic double tg mice.
From 5 months to 12 months after the birth, the mice were administered orally with the compound of Example 9, in an amount of 30 mg/kg or 100 mg/kg every day. As a comparative compound, tramiprosate (Aisen, P. S. et. al., Curr. Alzheimer Res. 2007, 4, 473) was used, which binds to beta-amyloid protein to inhibit the deposition and cytotoxicity to the protein. The compounds were administrated.
3) Fear Conditioning Test
At the First day of training, the mice were placed in a conditioning box and adjusted for 2 min. The fear conditioning was performed with a conditional stimulus (CS) of 75 dB for 20 sec, together with an electrical stimulus (unconditional stimulus (US)) of 0.5 mA for final 2 sec in the conditional stimulus period. After 1 min, the animals were transferred to a cage. After 24 hrs, the retention test was performed. The animals were placed in the same conditioning box as used above and observed for 5 min. The freezing response was measured without CS and US. The freezing response is defined in the state of the animals keeping still except for breathing.

Data set [2] relates to congo red-positive beta-amyloid plagues. Nature of the data set: Immunohistochemistry: congo red-positive beta-amyloid plaque count in hippocampus and cortex of transgenic mice. The format is in vivo. Conditions: for Reduction rate (%) of beta-amyloid plaques, cortex / Reduction rate (%) of beta-amyloid plaques, hippocampus / Total reduction rate (%) of beta-amyloid plaques: vs Tg group. Here is the method:
The transgenic mice were screened and drug was administered thereto as described in 1) and 2) of Experimental Example 4. The brain was separated from the transgenic mouse and fixed in 10% neutral formalin solution. A region of the brain including the hippocampus and the cortex were subjected to removal, washing, dehydration and paraffin infiltration to obtain paraffin block including the brain tissue. The paraffin block was subjected to thin section in thickness of 8 μm to obtain the sections of all regions of hippocampus. Among them, 10 sections were elected at regular intervals. They were deparaffinized, hydrated, immersed in Mayer's hematoxylin for 1 min and rinsed with tap water. The rinsed tissue was reacted in an alkaline sodium chloride solution for 20 min, after then was reacted in an alkaline congo red solution for 20 min. The resulting tissue was washed with 100% ethyl alcohol, cleared with xylene and mounted using a synthetic mounting medium. In the hippocampus and cortex regions of the tissue preparations strained with congo red, congo red-positive beta-amyloid plagues were counted.

Data set [3] in a line: Pharmacokinetics test in mice (plasma). The format is in vivo, ICR mice. The following applies: for AUC / Cmax / Tmax: ICR, mouse, plasma; for AUC / Cmax / Tmax / BA: mice; for AUC: n = 3; for AUC (in words) / bioavailability (in words): mice and rats, Tables 8 and 9; for BA: 2.5 mg/kg po vs 1.25 mg/kg iv. Here is the method:
1) Test Animal and Administration of Test Compound
Three 7 week-old ICR mice (weight: about 30 g) and three 8 week-old SD rats (weight: about 250 g) were used per test group. A solution prepared by dissolving the compounds of Examples 9 and 17 in excipient (DMSO/Tween 20/saline: 0.1/0.6/2.3, v/v/v) were administered to each experimental animal. The test compound was orally administered in an amount of 10 mL per kg of body weight or intravenously administered in an amount of 5 mL per kg of body weight through the fine vein.
2) Blood Concentration Test
At 30 min, 1 hr, 2 hr, 4 hr, 10 hr and 24 hr after oral administration of the test compounds, the blood was collected from periorbital veins into the tube containing heparin (1000 IU/mL, 3 μl) for the mice, and from jugular vein for rats. The blood sample was centrifuged at 12,000 rpm for 2 min to obtain plasma. The obtained plasma was kept in freezer at −80° C. until the analysis.
The sample was analyzed using LC/MSMS system under the following condition:
The sample was pretreated as follows:
50 μL of plasma was placed in 2.0 mL of tube having a cap (Eppendorf Co.) and acidified by adding 20 μL of 0.1% formic acid thereto. An internal standard solution and 1 mL of ethyl acetate as an extract solvent were added to the resultant solution. The resultant solution was mixed using thermomixer (Eppendorf Co.) at 1400 rpm for 5 min, and then subjected to centrifuge (Eppendorf Co.). The supernatant was collected and concentrated at 35° C. using cyclone. The residue was re-dissolved in 50 μL of moblie phase and 5 μL of the resulting solution was injected into LC/MS and analyzed.
In Tables 8 and 9, “iv” refers to a intravenous injection; “po” refers to a per oral; “AUC plasma” refers to an area under the plasma level-time curve; “Cmax” refers to a maximum plasma concentration; “Tmax” refers to a time to reach Cmax, “BA” refers to a bioavailability (%) according to Equation 2 below; “AUC Brain” refers to a area under the brain tissue level-time curve; and “AUCBrain/AUCPlasma” refers to a passage rate of the test compound to the brain.
Bioavailability (%)=[(AUCpo/AUCiv)×(Doseiv/Dosepo)×100] Equation 2
wherein, AUCpo means an area under the blood concentration time curve (AUC) after the per oral administration, AUCiv means an AUC after the intravenous injection, Doseiv means an amount of the intravenous injection, and Dosepo means an amount of the per oral administration.

As a reminder, the AUC is concentration integrated over time. Higher therefore signals more exposure. By Cmax is commonly meant the peak of the concentration-time curve. Usually Tmax stands for the time at which the peak concentration occurs. For `COc1ccc2cc(C=Cc3ccc(N(C)C)cc3)oc2c1` [Compound 9, 6-methoxy-2-(4-dimethylaminostyryl)benzofuran], at beta-amyloid 42 (30 mg/kg), the “Reduction rate (%) of beta amyloid 42 content” value is 41%. Moreover, the “Reduction rate (%) of beta amyloid 42 content” value on beta-amyloid 42 (100 mg/kg) came out at 48%. Besides, on beta-amyloid 42 (Table 13, 30 and 100 mg/kg), the “reduction rate of beta-amyloid plague compared with tramiprosate (in words)” value is listed as “remarkable reduction rate of beta-amyloid plague in a dose-dependent manner”. The “Increase rate (fold) of freezing” value in data set [1] (30 mg/kg orally every day) stood at 3.2 fold. Besides, the “Increase rate (fold) of freezing” value in data set [1] (100 mg/kg orally every day) was found to be 3.8 fold. Moreover, in data set [1] (30 and 100 mg/kg), the “degree of memory compared with tramiprosate (in words)” value is listed as “much higher degree of memory in a dose-dependent manner”. In data set [2] (30 mg/kg), the “Reduction rate (%) of beta-amyloid plaques, cortex” value was 43%; the “Reduction rate (%) of beta-amyloid plaques, hippocampus” value was 29%; the “Total reduction rate (%) of beta-amyloid plaques” value is reported as 41%. In addition, in data set [2] (100 mg/kg), the “Reduction rate (%) of beta-amyloid plaques, cortex” value is on record as 61%; the “Reduction rate (%) of beta-amyloid plaques, hippocampus” value is recorded as 64%; the “Total reduction rate (%) of beta-amyloid plaques” value worked out at 61%. In addition, the “beta-amyloid deposition in stained hippocampus and cortex tissues compared with tramiprosate (in words)” value in data set [2] (FIGS. 1 and 2) is recorded as “remarkably reduced beta-amyloid deposition”. In addition, the “reduction rate of beta-amyloid deposition compared with tramiprosate (in words)” value in data set [2] (Table 12, 30 and 100 mg/kg) is “remarkable reduction rate of beta-amyloid deposition in a dose-dependent manner”. Further, in data set [3] (1.25 mg/kg, iv), the AUC came out at 503 ng·h/mL. In data set [3] (2.5 mg/kg, po), the Cmax was found to be 172 ng/mL, the Tmax was determined as 49.8 min and the exposure (AUC) turned out to be 646 ng·h/mL. Also, in data set [3], the “AUC (in words)” value was “high degree of AUC”, the “bioavailability (in words)” value is “superior bioavailability” and the BA turned out to be 64.2%.
For orientation: melting point means the temperature of the solid-liquid transition. Molecule `CNc1ccc(C=Cc2cc3cc(OC)ccc3o2)cc1` [Compound 17, 5-methoxy-2-(4-methylaminostyryl)benzofuran] returned a melting point of 174 to 175 °C. In data set [3] (1.25 mg/kg, iv), this molecule gave an AUC of 237 ng·h/mL. Besides, in data set [3] (2.5 mg/kg, po), the highest concentration (Cmax) was 96.5 ng/mL, the Tmax was found to be 49.8 min and the area under the curve (AUC) stood at 326 ng·h/mL. In data set [3], the “AUC (in words)” value is “high degree of AUC”, the “bioavailability (in words)” value is given as “superior bioavailability” and the BA was determined as 68.8%.
